Measurements from PMC4171615, “Discovery of selective inhibitors of Glutaminase-2, which inhibit mTORC1, activate autophagy and inhibit proliferation in cancer cells” (Oncotarget, 2014).

Legend:
human GAB = biological target: T1, human GAB (Homo sapiens, UniProt Q9UI32); experiment: Two-step glutaminase activity assay, purified recombinant GAB; format: biochemical; settings: recombinant wild-type GAB, absence of phosphate
T1 construct: Equivalent construct of GAB (Pro56-Val602) was amplified from the cDNA clone; His-tag (N); made in house; host or cells: Escherichia coli C41(DE3)pLysS
T1 sequence (Q9UI32 56-602): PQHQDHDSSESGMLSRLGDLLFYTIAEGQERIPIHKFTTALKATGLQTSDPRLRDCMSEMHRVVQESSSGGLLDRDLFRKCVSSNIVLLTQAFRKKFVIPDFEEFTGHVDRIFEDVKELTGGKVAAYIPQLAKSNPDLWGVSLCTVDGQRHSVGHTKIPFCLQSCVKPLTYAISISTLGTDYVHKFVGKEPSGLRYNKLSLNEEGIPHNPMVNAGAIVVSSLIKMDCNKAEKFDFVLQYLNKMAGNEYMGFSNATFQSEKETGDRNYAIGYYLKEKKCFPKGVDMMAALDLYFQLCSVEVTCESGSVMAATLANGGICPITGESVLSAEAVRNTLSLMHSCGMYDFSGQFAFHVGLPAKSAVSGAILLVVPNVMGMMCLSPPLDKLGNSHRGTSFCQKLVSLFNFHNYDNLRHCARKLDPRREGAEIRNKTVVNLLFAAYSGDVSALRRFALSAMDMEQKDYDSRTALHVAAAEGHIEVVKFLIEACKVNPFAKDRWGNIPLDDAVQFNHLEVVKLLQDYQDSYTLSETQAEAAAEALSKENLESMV
Description: Equivalent construct of GAB […]) was amplified from the cDNA clone MGC: 195512 IMAGE: 100066375 (Invitrogen Inc., USA). The sequences of the primers were: [NT] (BamHI) and [NT] (Notl). The resultant GAB-expression vector, pET28a(+)-GAB, was transformed into Escherichia coli strain […] Biotech Co., Taiwan). The expression protocol was followed as that protocol of KGA construct. The cells after induction were collected and resuspended in lysis buffer (50 mM Tris-HCl pH 8.5, 500 mM NaCl, 10% glycerol, and 10 mM β-ME) for sonication. […] His-tagged GAB was eluted with lysis buffer containing 200 mM imidazole. The eluted GAB was exchanged to 20 mM Tris-HCl (pH 8.0), 300 mM NaCl, 50% glycerol, and 2 mM dithiothreitol by using a PD-10 Desalting column (GE Healthcare). Human glutaminase activity was measured using a two-step assay as described previously. A microtiter assay format was used to facilitate the collection of multiple data points. […] Samples were incubated at 25°C for 10 min and then 10 μl of 200 mM glutamine were added to the reaction mix. After adding glutamine, the reactions were incubated at 37°C for 60 min and then quenched by the addition of 10 μl of 0.6 M HCl. Subsequently, 100 μl of a second reaction mixture (3.7 units of purified bovine liver glutamate dehydrogenase, 160 mM Tris/acetate [pH 9.4], 400 mM hydrazine, 5 mM ADP and 2 mM NAD^+) was added to the stopped first reaction mixture and incubated for 30 min at 25°C. The absorbance at 340 nm was measured using a Wallac Victor2V plate reader (PerkinElmer), fitted with a 340 nm excitation filter. Sample absorbance was measured against a blank, containing no human glutaminase. The kinetic constants Km and Vmax were determined by using Kaleida Graph software (Synergy Software) to calculate a non-linear least-squares fit for all the data points to the Michaelis-Menten equation.

[1] = Carcinoma cell growth inhibition (cytotoxicity), A549; settings: human, A549 lung carcinoma cells
Description: (§1) The cancer cell lines including HepG2 and A549 were obtained from American Type Culture Collection (Rockville, MD). The cells were cultured in DMEM medium with 10% FBS (v/v) and penicillin (100 units/ml)/ streptomycin (100 mg/ml). Cultures were maintained in a humidified incubator at 37°C in 5% CO2/95% air. Dulbecco's Modified Eagle Medium (DMEM), fetal bovine serum (FBS), penicillin, streptomycin, and all other tissue culture reagents were obtained from GIBCO/BRL Life Technologies (Grand Island, NY).
(§2) A549 lung carcinoma and HepG2 hepatocarcinoma cells were seeded at 4000 and 10000 cells/well respectively in 96-well plates, as previously described for cell growth inhibition assay [27, 44].

[2] = Carcinoma cell growth inhibition (cytotoxicity), HepG2; settings: human, HepG2 hepatocarcinoma cells
Description: as §1, §2

human KGA = biological target: T2, human KGA (Homo sapiens, UniProt O94925); experiment: Two-step glutaminase activity assay, purified recombinant KGA; format: biochemical; settings: recombinant wild-type KGA, absence of phosphate
T2 construct: a KGA cDNA fragment of 1644 bp (residues Leu123-Leu669); His-tag (N); made in house; host or cells: Escherichia coli BL21(DE3)pLysS
T2 sequence (O94925 123-669): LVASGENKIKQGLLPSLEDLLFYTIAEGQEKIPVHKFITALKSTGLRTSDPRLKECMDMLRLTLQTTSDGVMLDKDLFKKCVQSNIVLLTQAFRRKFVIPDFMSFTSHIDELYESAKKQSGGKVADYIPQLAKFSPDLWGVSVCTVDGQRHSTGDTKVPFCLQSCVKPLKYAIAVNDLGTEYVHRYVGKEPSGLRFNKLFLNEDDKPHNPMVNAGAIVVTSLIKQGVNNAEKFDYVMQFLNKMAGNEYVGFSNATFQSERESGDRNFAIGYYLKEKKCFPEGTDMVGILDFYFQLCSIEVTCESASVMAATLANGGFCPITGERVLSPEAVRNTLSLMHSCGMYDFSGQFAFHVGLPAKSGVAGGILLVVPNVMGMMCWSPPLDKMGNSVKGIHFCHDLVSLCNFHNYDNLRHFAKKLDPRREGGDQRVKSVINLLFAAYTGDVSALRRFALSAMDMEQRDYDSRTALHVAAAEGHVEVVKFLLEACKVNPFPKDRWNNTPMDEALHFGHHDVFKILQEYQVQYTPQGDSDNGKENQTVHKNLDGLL
Description: The cDNA fragment of KGA digested with BamHI and NotI at each end was ligated into the pET28a(+) vector (Novagen) and expressed as a his-tag fusion. Escherichia coli strain BL21(DE3)pLysS was transformed with the resulting plasmid, pET28a(+)-KGA, and then cultured in Luria-Bertani broth medium in the presence of kanamycin. […] The cells were harvested by centrifugation at 10,000 rpm for 15 min at 4°C and resuspended in lysis buffer (5 mM Tris-HCl [pH 8.0], 50 mM NaH2PO4, 300 mM NaCl and 10 mM imidazole) for sonication. […] The eluted protein was exchanged to 20 mM Tris-HCl (pH 8.0), 300 mM NaCl, 10% glycerol, and 2 mM dithiothreitol by using a PD-10 Desalting column (GE Healthcare). The concentration of the purified protein was determined by use of the Bio-Rad protein assay reagent with a standard curve plotted against bovine serum albumin. […] A microtiter assay format was used to facilitate the collection of multiple data points. […] Samples were incubated at 25°C for 10 min and then 10 μl of 200 mM glutamine were added to the reaction mix. After adding glutamine, the reactions were incubated at 37°C for 60 min and then quenched by the addition of 10 μl of 0.6 M HCl. Subsequently, 100 μl of a second reaction mixture (3.7 units of purified bovine liver glutamate dehydrogenase, 160 mM Tris/acetate [pH 9.4], 400 mM hydrazine, 5 mM ADP and 2 mM NAD^+) was added to the stopped first reaction mixture and incubated for 30 min at 25°C. The absorbance at 340 nm was measured using a Wallac Victor2V plate reader (PerkinElmer), fitted with a 340 nm excitation filter. Sample absorbance was measured against a blank, containing no human glutaminase. The kinetic constants Km and Vmax were determined by using Kaleida Graph software (Synergy Software) to calculate a non-linear least-squares fit for all the data points to the Michaelis-Menten equation.

HepG2 cells = experiment: Colony (focus) formation assay, HepG2; format: cell-based, human; settings: HepG2, 21-day treatment
Description: A549 lung carcinoma and HepG2 hepatocarcinoma cells were seeded at 4000 and 10000 cells/well respectively in 96-well plates, as previously described for cell growth inhibition assay [27, 44]. To assess anchorage-dependent colony formation effect, the cells (1000 cells/well) were seeded in a six-well plate for 20-24 h prior to treatments of vehicle DMSO or compounds as indicated. Culture medium containing vehicle DMSO or compounds as indicated was changed twice a week. After a 21-day treatment, the cell colonies were rinsed with PBS, fixed in 3:1 ratio of methanol and acetic acid, stained with 0.05% crystal violet.

AMPK = experiment: Western blot of AMPK_ULK1 axis signaling in HepG2 cells; format: cell-based, human; settings: co-treatment with AV-1
Description: (§3) The cells were cultured in DMEM medium with 10% FBS (v/v) and penicillin (100 units/ml)/ streptomycin (100 mg/ml). Cultures were maintained in a humidified incubator at 37°C in 5% CO2/95% air. Dulbecco's Modified Eagle Medium (DMEM), fetal bovine serum (FBS), penicillin, streptomycin, and all other tissue culture reagents were obtained from GIBCO/BRL Life Technologies (Grand Island, NY). Antibodies to GAPDH, caspase 3, LC3B, p-ULK1(S317), p-ULK1(S757), Beclin1, p-BCL2(S70), p70S6K, p-p70S6K(T389), 4E-BP1, α-tubulin, 4E-BP, p-4E-BP(S65), p-eIF4B(S422), mTOR, p-mTOR(S2481), p-mTOR(S2448), p-Raptor(S792), Tuberin, p-Tuberin(T1462), p-Tuberin(T1387), p-AMPK(T172) and p-AMPK(S108) were from Cell Signaling Technology; antibody to p-Beclin1(S15) was from Abbiotec; antibodies to KGA and Raptor were from Abcam; antibodies to BCL2 were from Upstate Biotechnology; antibodies to α-tubulin were from Chemicon International; antibodies to ULK1, β-tublin and AMPK were from GeneTex; antibodies to GAB were from abnova and Gene Tex; antibodies to GAC were from ProteinTech Group; antibodies to p-mTOR(S2446) and AMPK were from Millipore; anti-mouse and anti-rabbit IgGs were obtained from PerkinElmer. […] Compound C was obtained from Sigma–Aldrich (St. Louis, MO). Western blotting was performed as described [40].

mTORC1 = experiment: Western blot of mTORC1 components and downstream targets in HepG2 cells; format: cell-based, human; settings: co-treatment with AV-1
Description: as §3

in vitro [3] = settings: human
Description: as §1, §2

in vitro [4] = settings: human; remark: listed apart in the source
Description: as §1, §2

Structure (SMILES)	IC50 (human GAB)	IC50 (human KGA)	CC50 [1]	CC50 [2]	other results
O=C(Cc1ccccc1)Nc1nnc(CCSCCc2nnc(NC(=O)Cc3ccccc3)s2)s1 [BPTES]					IC50 (HepG2 cells): 2800 ± 400 nM
CCCCCCCCCCCC(Cc1cc(OC(C)=O)cc(OC)c1O)OC(C)=O (centres unmarked) [AV-9]	31700 ± 6700 nM		13 ± 2.1 µM	13.7 ± 2.2 µM	
CCCCCCCCCCCC(Cc1c(O)c(OC)cc(O)c1C=O)OC(C)=O (centres unmarked) [AV-10]	23100 ± 4900 nM		22.1 ± 1.6 µM	21.2 ± 0.8 µM	
CCCCCCCCCCCC(CC1=C(O)C(=O)C=C(OC)C1=O)OC(C)=O (centres unmarked) [AV-4]			> 50 µM	> 50 µM	
COc1cc(O)cc(CCCCCCC/C=C\CCCCCCCc2cc(O)c(C)c(O)c2)c1 [AK-5]	2300 ± 400 nM	70 ± 1.6 µM			
c1cc(-c2cnn3cc(-c4ccc(OCCN5CCCCC5)cc4)cnc23)ccn1 [compound C]					Effect on the AV-1 decreased phosphorylation of ULK1 Ser757 (AMPK): reversed; Effect on AV-1 induced phosphorylation of Raptor at Ser792 and Tuberin at Ser1387 (mTORC1): attenuated
CCCCCCCCCCCC(Cc1cc(O)cc(OC)c1O)OC(C)=O (centres unmarked) [AV-8]			11.6 ± 0.4 µM	18.8 ± 0.7 µM	
Cc1c(O)cc(CCCCCCC/C=C\CCCCCc2cc(O)cc(O)c2)cc1O [AK-10]	2100 ± 100 nM	11.7 ± 1.3 µM			
[N-]=[N+]=CC(=O)CC[C@H](N)C(=O)O [DON, reference compound]		59.9 ± 8.8 µM			
CCCCCCCCCCCCCC(Cc1cc(OC(C)=O)cc(OC)c1O)OC(C)=O (centres unmarked) [AV-11]	5700 ± 1100 nM	69 ± 3.1 µM	5 ± 0.8 µM	5.2 ± 0.3 µM	
CCCCCCCCCCCCCC1=C(O)C(=O)C=C(OC)C1=O [AV-7]					CC50 (in vitro [3]): > 50 µM; CC50 (in vitro [4]): > 50 µM

Continued, in another order:

IC50 (human GAB)	IC50 (human KGA)	Structure (SMILES)	CC50 [1]	CC50 [2]	other results
25100 ± 4500 nM		CCCCCCCCCCCCCC(CC1=C(O)C(=O)C=C(OC)C1=O)OC(C)=O (centres unmarked) [AV-3]	> 50 µM	> 50 µM	
2700 nM	76.9 ± 0.8 µM	CCCCCCCC/C=C\CCCCCCCc1cc(O)c(C)c(O)c1 [AK-3]			
3100 ± 500 nM	13.9 ± 1.5 µM	Cc1c(O)cc(CCCCC/C=C\CCCCCCCc2cc(O)c(C)c(O)c2)cc1O [AK-8]			
2900 ± 600 nM	73 ± 3 µM	CCCCCCCC/C=C\CCCCCCCc1cc(O)cc(O)c1 [AK-1]			
2900 ± 600 nM	9.6 ± 1.2 µM	COc1cc(O)cc(CCCCCCC/C=C\CCCCCc2cc(O)cc(O)c2)c1 [AK-12]	> 100 µM	84.6 ± 2.3 µM	
	52.7 ± 2.7 µM	CCCCCCCc1cc(O)cc(OC)c1 [AV-13]	35.5 ± 2.6 µM	36.9 ± 2 µM	
	59.8 ± 4.6 µM	CCCCCC/C=C\CCCCCCCc1cc(O)c(C)c(O)c1 [AK-4]			
7600 ± 2000 nM	52.4 ± 15.5 µM	CCCCCCCCCCCCCC(O)Cc1cc(O)cc(OC)c1 (centres unmarked) [AV-12]	> 50 µM	> 50 µM	
2300 ± 500 nM	11.9 ± 1.2 µM	Cc1c(O)cc(CCCCCCC/C=C\CCCCCCCc2cc(O)cc(O)c2)cc1O [AK-9]			
4700 ± 1300 nM	41 ± 5.2 µM	CCCCCCCCCCCCCC(=O)Cc1cc(O)cc(OC)c1OC(C)=O [AV-14]	> 50 µM	> 50 µM	
2500 ± 300 nM	36.7 ± 3.2 µM	COc1cc(O)cc(CCCCC/C=C\CCCCCCCc2cc(O)c(C)c(O)c2)c1 [AK-6]			
2900 ± 500 nM	13.4 ± 2.2 µM	COc1cc(O)cc(CCCCCCC/C=C\CCCCCCCc2cc(O)cc(O)c2)c1 [AK-11]			
2900 ± 800 nM	17.5 ± 2.6 µM	Cc1c(O)cc(CCCCCCC/C=C\CCCCCCCc2cc(O)c(C)c(O)c2)cc1O [AK-7]	> 100 µM	> 100 µM	
